Source: the NIST ThermoML archive (doi:10.1016/j.jct.2014.01.023)

Settings: Crystal; for vapor or sublimation pressure: Transpiration method

CN1C(=O)N(C)C(=O)C(C)(C)C1=O [1,3,5,5-tetramethylpyrimidine-2,4,6(1H,3H,5H)-trione]
Settings | vapor or sublimation pressure [kPa]
323.2 K | 0.00344
326.2 K | 0.00457
328.2 K | 0.00555
332.1 K | 0.00801
334.2 K | 0.0099
336.2 K | 0.01132
338.2 K | 0.01415
340.1 K | 0.01647
342.9 K | 0.02036
346 K | 0.02803
347.4 K | 0.03182
349.2 K | 0.03555
350.1 K | 0.04039
351 K | 0.04459
351.1 K | 0.04429
352.9 K | 0.05014
355.2 K | 0.05715
356.2 K | 0.06561
360.2 K | 0.08943
365 K | 0.135
367.6 K | 0.168

CC1C(=O)N(C)C(=O)N(C)C1=O [1,3,5-trimethylbarbituric acid]
Settings | Normal melting temperature [°C] | vapor or sublimation pressure [kPa]
322.5 K | – | 0.00289
328.4 K | – | 0.00528
332.6 K | – | 0.00792
338.6 K | – | 0.01482
343 K | – | 0.02296
349.4 K | – | 0.04451
354.5 K | – | 0.06767
358.6 K | – | 0.09676
DTA | 90.50 | –

CN1C(=O)NC(=O)C(C)(C)C1=O [1,5,5-trimethylbarbituric acid]
Settings | vapor or sublimation pressure [kPa]
360 K | 0.00265
366.1 K | 0.00471
366.2 K | 0.00487
374.2 K | 0.00972
379.6 K | 0.01551
380.8 K | 0.01685
382.7 K | 0.02034
386.8 K | 0.02976
387.5 K | 0.02935
388.7 K | 0.03375
389.7 K | 0.03771
392.6 K | 0.04726
393.7 K | 0.05266
396.7 K | 0.06438
402.5 K | 0.09884
406.7 K | 0.1462
410.2 K | 0.187
411.7 K | 0.196
414.2 K | 0.2461
419.9 K | 0.3607
427.9 K | 0.6087
